Assay results from paper PMC4267740, “Unprecedented Therapeutic Potential with a Combination of A2A/NR2B Receptor Antagonists as Observed in the 6-OHDA Lesioned Rat Model of Parkinson's Disease” (PLoS ONE, 2014).

Columns and labels:
[1] = test system: NR2B; details: In vitro Binding; cited from earlier work
[2] = test system: NR2A; parameters: method as in PMID 19594762; details: In vitro Binding; cited from earlier work
[3] = test system: unilateral 6-OHDA-lesioned rats; test: L-Dopa-induced contralateral rotations in rotometers, add-on therapy; assay type: in vivo, rat; details: add-on to L-Dopa 25 mg/kg ip; for Contralateral rotations, drugs alone vs vehicle, time for which significant: 10-min intervals, 120 min recording; for Time for which the drug given separately was active in increasing or prolonging the L-Dopa effect on contralateral rotations: each given separately
Description: To protect norepinephrinergic neurons, animals were administered imipramine HCl (Sigma) 15 minutes before surgery. They were subsequently anesthetized with ketamine (Ceva, 75 mg/kg) and xylazine (Bayer, 10 mg/kg) and placed in stereotaxic frame (David Kopf Instrument). 6-OHDA was injected into the right ascending medial forebrain bundle at the following coordinates (in mm) relative to bregma and surface of the dura, AP = −3.5, ML = −1.5, DV = −8.7. Each rat received one injection of 6-OHDA (4 µg/µl) over a period of 5 minutes (0.5 µl/min) for a total of 10 µg per rat. Animals were monitored for 3 weeks to ensure full recovery and habituation to the environment and experimenters.
On day 21 post surgery, all rats were challenged with a small dose of subcutaneously administered apomorphine (Sigma, 0.05 mg/kg). Rats showing more than 90 contralateral rotations (360°) over a 45-minute recording period were included in the study. […] For each experiment, rats were allocated to the different experimental groups in order to get the same mean level of basal activity measured at the apomorphine challenge amongst the different experimental groups.
The rats tested one week earlier for general activity (actometers) were once again placed in clear acrylic individual chambers (50×45 cm) with the same treatment (drug and dose) than that previously received plus L-Dopa. Eight chambers were placed on a level, clear glass bottom, held by a robust frame, and were subdivided into four individual test cages of 25×22 cm. A removable acrylic plate served as a lid.
Rotational behaviour was recorded using a home-made computerized system. Rats were fixed in a harness and linked to mechanical sensors connected directly to a computer. Each 360° clock-wise or counter clock-wise turn was automatically recorded for up to 120 minutes at the maximum. Throughout the experiments, rats were allocated to individual test cages.
Four different combinations were administered as add-on treatment to a low active dose of L-Dopa (25 mg/kg, ip) without any dopa decarboxylase inhibitor to avoid any additional pharmacokinetic interaction. The doses of the compounds were selected on the basis of preliminary dose-response curves performed separately for each drug. To avoid ceiling effect with L-Dopa, only submaximal doses of each drug were selected for testing (as it was done previously for monotherapy). Eight L-Dopa naïve animals were tested for each of the four pharmacological condition: vehicle and L-Dopa (25 mg/kg); A2A antagonist followed by vehicle and L-Dopa; vehicle followed by NR2B antagonist and L-Dopa; A2A antagonist followed by NR2B and L-Dopa. Due to the dominance of the L-Dopa-effect on the lesioned striatum, the unilateral 6-OHDA-lesioned rats rotated after the drugs administration and behavioral activity was recorded in rotometers (i.e. level of contralateral rotations).
All drugs were administered i.p. 25 minutes before behavioural recording, except for the Tozadenant and Radiprodil combination which was administered orally 60 minutes before behavioural recording. As Radiprodil was administered orally, L-Dopa was given 45 minutes after the Radiprodil injection whereas for the other combinations L-Dopa was given 15 minutes after the NR2B drug. The drugs, the doses and the combinations given in co-administration to L-Dopa are described in Table 4 .
The impact of treatment with A2A or NR2B receptor antagonists, given alone or in combination, on the effect of L-Dopa on contralateral rotations was also analysed with a three-way mixed ANOVA. The ANOVA included the A2A and the NR2B receptor antagonists (both, 2 levels, vehicle and the drug) as between-group factors combined with time (12 levels) as within-subjects factor. […] The ability of the combination to increase and prolong the activity of L-Dopa was also explored. Consequently, drug effects were analyzed for every 10-min time interval. […]

[4] = target: A1; parameters: method as in PMID 21810444, PMID 9933143, PMID 17236762; details: in vitro binding; rat or human; cited from earlier work
[5] = target: A2A; parameters: method as in PMID 21810444, PMID 9933143, PMID 17236762; details: in vitro binding; rat or human; cited from earlier work
[6] = Preladenant 0.03 mg/kg ip, Radiprodil 0.3 mg/kg ip
[7] = Tozadenant 30 mg/kg po, Radiprodil 3 mg/kg po
[8] = Sch-58261 0.3 mg/kg ip, Co-101244 1 mg/kg ip

Row | SMILES | IC50 [1] [nM] | IC50 [2] [nM] | Contralateral rotations, drugs alone vs vehicle, p (planned contrasts on each 10-min interval) [3, 6] | Contralateral rotations, drugs main effect, p (three-way mixed ANOVA) [3, 6] | Contralateral rotations, drugs × time effect, p (three-way mixed ANOVA) [3, 6] | Contralateral rotations, drugs alone vs vehicle, p (planned contrasts on each 10-min interval) [3, 7] | Contralateral rotations, drugs main effect, p (three-way mixed ANOVA) [3, 7] | Contralateral rotations, drugs × time effect, p (three-way mixed ANOVA) [3, 7] | Contralateral rotations, drugs alone vs vehicle, time for which significant [3, 7] | Time for which the drug given separately was active in increasing or prolonging the L-Dopa effect on contralateral rotations [3, 7] [min] | Contralateral rotations, drugs main effect, p (three-way mixed ANOVA) [3, 8] | Contralateral rotations, drugs × time effect, p (three-way mixed ANOVA) [3, 8] | Ki [4] [nM] | Ki [5] [nM]
1 | O=C(Nc1ccc2[nH]c(=O)oc2c1)C(=O)N1CCC(Cc2ccc(F)cc2)CC1 [Radiprodil] | 3 to 10 | > 10000 | Not significant | Not significant | p<0.01 | < 0.05 | p<0.01 | p<0.001 | 20 ′ | 20 | – | – | – | –
2 | Nc1nc2c(cnn2CCc2ccccc2)c2nc(-c3ccco3)nn12 [Sch-58261] | – | – | – | – | – | – | – | – | – | – | p<0.05 | p<0.001 | – | –
3 | COc1ccc(N2CCOCC2)c2sc(NC(=O)N3CCC(C)(O)CC3)nc12 [Tozadenant] | – | – | – | – | – | < 0.05 | p<0.001 | p<0.001 | 80 ′ | 80 | – | – | 1320 | 4.9
